The term melting point denotes the temperature of the solid-liquid transition.

For `O=c1cc(Oc2ccccc2)c(-c2nc[nH]n2)cn1-c1ccccc1`, the melting point lay within 275 to 276 °C.
For `CCOC(=O)Nc1ccc(OCCCCl)cc1`, the melting point was in the range of 91 to 93 °C.
Molecule `CC(C)Cc1ccc(C2(C)Oc3ccc(C(=O)c4c[nH]c5ccccc45)cc3O2)cc1` (single isomer, unassigned; (-)) gave a melting point of 155 to 158 °C.
Turning to `CC(C)OC(=O)n1ncc2cc(C(O)(c3cn(C)c4ccccc34)C(F)(F)F)ccc21` (centres undefined), the melting point fell in the range of 105 to 106 °C.
In the case of `CC(C)C[C@H](NC(=O)OC(C)(C)C)[C@@H]1CCC(=O)O1`, the melting point was 75 to 77 °C.
Consider `O=C(NCC1CCN(CC2(C(=O)O)CC2)CC1)N1C(=O)C2(CCCC2)c2ccccc21`, for which the melting point came out at 186 °C.
The result for `CCN(CC)CCCCC(=O)c1ccc2c(c1)Cc1cc(C(=O)CCCCN(CC)CC)ccc1-2` reads 78 to 80 °C.
`CNC(=O)c1ccc(N(CC(=O)OC(C)(C)C)C(=O)OC(C)(C)C)cc1` yielded a melting point of 164 to 166 °C.
The result for `CS(=O)(=O)c1ccc(-c2ccc(C=C(Cl)Cl)s2)cc1` reads 143 to 145 °C; that for `CC(=O)OC(CCc1cc2cccnc2n(-c2cccc([N+](=O)[O-])c2)c1=O)c1ccncc1` (centres undefined), 69 to 71 °C.
On to `O=C(Nc1ccc(-c2ncc(-c3ccc(NC(=O)C4CCCCCC4)cc3)[nH]2)cc1)c1c(F)c(F)c(F)c(F)c1F`, for which the melting point lay within 300 to 302 °C.
The result for `CCOC(=O)c1cnc2ccccc2c1O` reads 266 °C; that for `CS(=O)(=O)Nc1ccc(F)c(C(=O)C[N+](=O)[O-])c1`, 174 to 176 °C; that for `CCN(CC)c1cccc(OCCOS(N)(=O)=O)c1`, 105 to 106 °C.
The result for `O=C(O)c1ncc2[nH]c3c([N+](=O)[O-])cc([N+](=O)[O-])cc3c2n1` reads 269 to 272 °C; that for `COc1cc(Nc2c(C#N)cnc3cc(-c4ccc(CN5CCN(C)CC5)cc4)sc23)cc(OC)c1OC`, 189 to 191 °C.
For the molecule `COc1ccccc1N(CCN1CCC(C(=O)c2ccc(F)cc2)CC1)S(=O)(=O)c1cccnc1`, the melting point is 126 to 128 °C.
For the molecule `CCOC(=O)c1c(Nc2ccc(Cl)cc2C)n[nH]c1C`, the melting point is 156 to 187 °C.
Turning to `COc1ccccc1C1SCCCS1`, the melting point lay in the range of 127 to 128 °C.
`CCCCCCn1c2ccc(C)cc2c(=O)c2c1cnn2C` had a melting point of 80 to 82 °C.
Then `CNC(=O)CN1CCc2cc(Nc3ncc(Cl)c(Nc4cc(Cl)ccc4OC)n3)c(OC)cc2CC1`, with 127 to 136 °C; and `CCC(C)(C)OC(=O)N1CCC(c2ccc(COc3ccc(S(C)(=O)=O)cc3)nc2)CC1`, with 114 to 115 °C; and `O[C@@H]1CN=C(c2cccc(Cl)c2)O[C@H]1c1ccccc1` (racemic), with 100 °C.
Molecule `[N-]=[N+]=Nc1cccc2cccc(O)c12` showed a melting point of 65 to 67 °C.
Take `Oc1ccc(-c2nc(Br)c[nH]2)cc1Cl`: the melting point was 225 to 227 °C.
The result for `Cn1nc(-c2c(Cl)cccc2Cl)nc1-c1cccnc1Cl` reads 133 to 136 °C; that for `CCOC(=O)C(C)NC(=O)CN(C(=O)c1ccc(Cl)cc1)c1c(C)cccc1C` (centres undefined), 91 to 92 °C; that for `Cc1cc(C2=NCCO2)cc(C)c1O`, 184 to 186 °C.
With `CCOC(=O)c1ncn2c1CN=C(c1ccccc1Cl)c1cc(Cl)ccc1-2`, the melting point fell in the range of 215 to 220 °C.
The result for `COc1cc(O)c(C(=O)c2ccccc2)cc1CN(C)C` reads 69 °C; that for `C=C1CCCC2(C)C1=CC(=O)C1C3CCC(=O)C3(C)CCC12` (centres undefined), 132 °C.
In the case of `O=C(O)COc1cc(F)ccc1C(=O)NCc1ccc(Br)cc1F`, the melting point was 143 to 145 °C.
The result for `COC(=O)c1cc(C(C)=O)c(OCc2ccccc2)cc1OCc1ccccc1` reads 114 to 115 °C.
Then `C=CCC1=C(C)C(O)CC1=O` (centres undefined), with 130 to 132 °C; and `COc1cccc2c1CCCC2n1cc[nH]c1=S` (centres undefined), with 176 to 177 °C; and `NC(=S)c1c(Cl)cncc1Cl`, with 186 to 187 °C.
`CN1CC(=O)N(c2ccc3c(c2)CCC3)C1=S` registered a melting point of 158 to 160 °C.
Turning to `COC(=O)COc1c(Cl)cc(C(=O)CBr)cc1Cl`, the melting point lay in the range of 89 to 90 °C.
For `COc1ccc(-c2cn(C)cc(-c3cccc(C(F)(F)F)c3)c2=O)cc1`, the melting point fell in the range of 160 to 162 °C.
With `CCC(COc1cccc(COc2cccc3ccc(=O)[nH]c23)c1)OC(C)=O` (centres undefined), the melting point was in the range of 81 to 84 °C.
With `CCOC(=O)CCc1ccccc1CNC(=O)C1Cc2ccccc2N1S(=O)(=O)c1ccc(-c2cccc(C(F)(F)F)c2)cc1` (centres undefined), the melting point stood at 48 °C.
Then `CN1CCN(c2ccc(C(=O)NCCCCCCCCCO[N+](=O)[O-])cn2)CC1`, with 90 to 92 °C; and `COc1ccc([C@@H]2OC(=O)[C@H](Cc3ccccc3)N2C(=O)OCc2ccccc2)cc1`, with 85 °C.
The molecule `CCOC(=O)c1sc2ccc(OC)cc2c1OCC` displayed a melting point of 42 to 43 °C.
Turning to `CCn1c(=O)n(C2CCN(C(C)(C)CCCN3C(=O)c4ccccc4S3(=O)=O)CC2)c2ccccc21`, the melting point is 182 to 185 °C.
In turn, `CC(C)(C)OC(=O)N1CCOc2ccccc21` registered a melting point of 78 to 79 °C.
With `Cc1c(C(=O)Nc2ccc(N3CCN(CCCc4cccnc4)CC3)c(C#N)c2)cnn1-c1ccc(Cl)cc1`, the melting point was 201 to 203 °C.
Molecule `CN(C)C=Nc1nc(=O)n(C(=O)OCC(C)(C)C)cc1F` displayed a melting point of 162 to 164 °C.
`COC(=O)C1=C(O)c2sc(C(F)(F)F)cc2S(=O)(=O)N1C` returned a melting point of 178 to 180 °C.
Then `CC(C)(C)OC(=O)N[C@@H](CC1CCCCC1)[C@H](O)c1ccccn1`, with 84 to 85 °C; and `O=C(O)C(=O)c1ccc(OC/C=C/c2ccc(F)cc2)cc1`, with 132 to 133 °C.
Then `Cc1cc(C)c(Nc2ccnc(Nc3ccc(C#N)cc3)n2)c(C)c1`, with 217 to 218 °C; and `O=C(O)/C(=C/c1ccccc1)CSC(=O)c1ccccc1`, with 160 °C; and `CN(C)CC(F)(F)[C@H](O)[C@@H](N)CC1CCCCC1`, with 47 to 49 °C.
In turn, `COc1ccc(C(=O)Nc2ccccc2)cc1NCc1ccccc1C` registered a melting point of 167 to 169 °C.
Consider `CCc1occc(=O)c1OCc1ccccc1`, for which the melting point fell in the range of 33 to 34 °C.
Molecule `CC(=O)CC[C@H](NC(=O)OCc1ccccc1)C(N)=O` had a melting point of 142 to 144 °C.
`CCC(=O)NCCC1=CCC2=C1C1=C(CC2)OCCC1` had a melting point of 85 to 88 °C.
The result for `COc1cc2c(=O)n(CCN(C)C)c3c(cnc4cccc(N)c43)c2cc1OC` reads 239 to 241 °C; that for `CCCN(CCC)C(=O)Cc1c(-c2ccc(C)cc2)nn2cccnc12`, 110 to 111 °C; that for `CCOC(=O)c1cn(CC)c2nc(OC)ncc2c1=O`, 149 °C.
As to `FC(F)(F)c1nnnn1-c1ccc(OCc2ccccc2)c(Br)c1`, the melting point lay in the range of 66 to 68 °C.
Consider `CC(C)(C)c1cc(C(=O)c2cccs2)cc(CN(C2CCCCC2)C2CCCCC2)c1O`, for which the melting point was in the range of 161 to 162 °C.
The molecule `N#Cc1ccc(OCCCCCCOc2ccc(-c3cc4ccc(C#N)cc4o3)cc2)cc1` gave a melting point of 159 to 160 °C.

(Values after a melting point compilation (Tetko et al.; mined from patent text by program, amines drawn as free bases though some values may be those of a salt).)
